≈ marks a conversion by molar mass, not a printed value.
What was measured:
Streptococcus mutans [1] = experiment: Antibacterial activity against Streptococcus mutans ATCC 25175 assessed as effect on planktonic growth at 21.9 ug/ml after 20 hrs relative to control; format: functional
Streptococcus mutans [2] = experiment: Antibacterial activity against Streptococcus mutans ATCC 25175 assessed as effect on planktonic growth at 43.8 ug/ml after 20 hrs relative to control; format: functional
Streptococcus mutans [3] = experiment: Antibacterial activity against Streptococcus mutans ATCC 25175 assessed as effect on planktonic growth at 87.5 ug/ml after 20 hrs relative to control; format: functional
Staphylococcus aureus [4] = experiment: Antibacterial activity against Staphylococcus aureus ATCC 25923 assessed as effect on planktonic growth at 0.17 ug/ml after 20 hrs relative to control; format: functional
Staphylococcus aureus [5] = experiment: Antibacterial activity against Staphylococcus aureus ATCC 25923 assessed as effect on planktonic growth at 0.34 ug/ml after 20 hrs relative to control; format: functional
Staphylococcus aureus [6] = experiment: Antibacterial activity against Staphylococcus aureus ATCC 25923 assessed as effect on planktonic growth at 0.68 ug/ml after 20 hrs relative to control; format: functional
Staphylococcus aureus [7] = experiment: Antibacterial activity against Staphylococcus aureus ATCC 25923 assessed as effect on planktonic growth at 1.37 ug/ml after 20 hrs relative to control; format: functional
Staphylococcus aureus [8] = experiment: Antibacterial activity against Staphylococcus aureus ATCC 25923 assessed as effect on planktonic growth at 5.5 ug/ml after 20 hrs relative to control; format: functional
Staphylococcus aureus [9] = experiment: Antibacterial activity against Staphylococcus aureus ATCC 25923 assessed as effect on planktonic growth at 2.73 ug/ml after 20 hrs relative to control; format: functional
Staphylococcus aureus [10] = experiment: Antibacterial activity against Staphylococcus aureus ATCC 25923 assessed as effect on planktonic growth at 10.9 ug/ml after 20 hrs relative to control; format: functional
Staphylococcus aureus [11] = experiment: Antibacterial activity against Staphylococcus aureus ATCC 25923 assessed as effect on planktonic growth at 21.9 ug/ml after 20 hrs relative to control; format: functional
Staphylococcus aureus [12] = experiment: Antibacterial activity against Staphylococcus aureus ATCC 25923 assessed as effect on planktonic growth at 43.8 ug/ml after 20 hrs relative to control; format: functional
Staphylococcus aureus [13] = experiment: Antibacterial activity against Staphylococcus aureus ATCC 25923 assessed as effect on planktonic growth at 87.5 ug/ml after 20 hrs relative to control; format: functional
Pseudomonas aeruginosa [14] = experiment: Antibacterial activity against Pseudomonas aeruginosa ATCC 27853 assessed as effect on planktonic growth at 0.17 ug/ml after 20 hrs relative to control; format: functional
Pseudomonas aeruginosa [15] = experiment: Antibacterial activity against Pseudomonas aeruginosa ATCC 27853 assessed as effect on planktonic growth at 0.34 ug/ml after 20 hrs relative to control; format: functional
Pseudomonas aeruginosa [16] = experiment: Antibacterial activity against Pseudomonas aeruginosa ATCC 27853 assessed as effect on planktonic growth at 0.68 ug/ml after 20 hrs relative to control; format: functional
Pseudomonas aeruginosa [17] = experiment: Antibacterial activity against Pseudomonas aeruginosa ATCC 27853 assessed as effect on planktonic growth at 1.37 ug/ml after 20 hrs relative to control; format: functional
Pseudomonas aeruginosa [18] = experiment: Antibacterial activity against Pseudomonas aeruginosa ATCC 27853 assessed as effect on planktonic growth at 2.73 ug/ml after 20 hrs relative to control; format: functional
Pseudomonas aeruginosa [19] = experiment: Antibacterial activity against Pseudomonas aeruginosa ATCC 27853 assessed as effect on planktonic growth at 5.5 ug/ml after 20 hrs relative to control; format: functional
Pseudomonas aeruginosa [20] = experiment: Antibacterial activity against Pseudomonas aeruginosa ATCC 27853 assessed as effect on planktonic growth at 10.9 ug/ml after 20 hrs relative to control; format: functional
Pseudomonas aeruginosa [21] = experiment: Antibacterial activity against Pseudomonas aeruginosa ATCC 27853 assessed as effect on planktonic growth at 21.9 ug/ml after 20 hrs relative to control; format: functional
Pseudomonas aeruginosa [22] = experiment: Antibacterial activity against Pseudomonas aeruginosa ATCC 27853 assessed as effect on planktonic growth at 43.8 ug/ml after 20 hrs relative to control; format: functional
Pseudomonas aeruginosa [23] = experiment: Antibacterial activity against Pseudomonas aeruginosa ATCC 27853 assessed as effect on planktonic growth at 87.5 ug/ml after 20 hrs relative to control; format: functional
[24] = test system: Staphylococcus epidermidis; experiment: Antibacterial activity against Staphylococcus epidermidis ATCC 35547 assessed as effect on planktonic growth at 0.17 ug/ml after 20 hrs relative to control; format: functional
[25] = test system: Staphylococcus epidermidis; experiment: Antibacterial activity against Staphylococcus epidermidis ATCC 35547 assessed as effect on planktonic growth at 0.34 ug/ml after 20 hrs relative to control; format: functional
[26] = test system: Staphylococcus epidermidis; experiment: Antibacterial activity against Staphylococcus epidermidis ATCC 35547 assessed as effect on planktonic growth at 0.68 ug/ml after 20 hrs relative to control; format: functional
[27] = test system: Staphylococcus epidermidis; experiment: Antibacterial activity against Staphylococcus epidermidis ATCC 35547 assessed as effect on planktonic growth at 1.37 ug/ml after 20 hrs relative to control; format: functional
[28] = test system: Staphylococcus epidermidis; experiment: Antibacterial activity against Staphylococcus epidermidis ATCC 35547 assessed as effect on planktonic growth at 2.73 ug/ml after 20 hrs relative to control; format: functional
[29] = test system: Staphylococcus epidermidis; experiment: Antibacterial activity against Staphylococcus epidermidis ATCC 35547 assessed as effect on planktonic growth at 5.5 ug/ml after 20 hrs relative to control; format: functional
[30] = test system: Staphylococcus epidermidis; experiment: Antibacterial activity against Staphylococcus epidermidis ATCC 35547 assessed as effect on planktonic growth at 10.9 ug/ml after 20 hrs relative to control; format: functional
[31] = test system: Staphylococcus epidermidis; experiment: Antibacterial activity against Staphylococcus epidermidis ATCC 35547 assessed as effect on planktonic growth at 21.9 ug/ml after 20 hrs relative to control; format: functional
[32] = test system: Staphylococcus epidermidis; experiment: Antibacterial activity against Staphylococcus epidermidis ATCC 35547 assessed as effect on planktonic growth at 43.8 ug/ml after 20 hrs relative to control; format: functional
[33] = test system: Staphylococcus epidermidis; experiment: Antibacterial activity against Staphylococcus epidermidis ATCC 35547 assessed as effect on planktonic growth at 87.5 ug/ml after 20 hrs relative to control; format: functional
Streptococcus mutans [34] = experiment: Antibacterial activity against Streptococcus mutans ATCC 25175 assessed as inhibition of biofilm formation after 20 hrs by crystal-violet staining method; format: functional; conditions: ATCC 25175, 20 h
Streptococcus mutans [35] = experiment: Antibacterial activity against Streptococcus mutans ATCC 25175 assessed as inhibition of biofilm formation at 44 ug/ml after 20 hrs by crystal-violet staining method relative to control; format: functional; conditions: ATCC 25175, 20 h
Staphylococcus aureus [36] = experiment: Antibacterial activity against Staphylococcus aureus ATCC 25923 assessed as inhibition of biofilm formation after 20 hrs by crystal-violet staining method; format: functional, organism-based; conditions: ATCC 25923, 20 h
Pseudomonas aeruginosa [37] = experiment: Antibacterial activity against Pseudomonas aeruginosa ATCC 27853 assessed as inhibition of biofilm formation after 20 hrs by crystal-violet staining method; format: functional, organism-based
[38] = test system: Staphylococcus epidermidis; experiment: Antibacterial activity against Staphylococcus epidermidis ATCC 35547 assessed as inhibition of biofilm formation after 20 hrs by crystal-violet staining method; format: functional, organism-based
Streptococcus mutans [39] = experiment: Antibacterial activity against Streptococcus mutans ATCC 25175 assessed as effect on planktonic growth at 0.17 ug/ml after 20 hrs relative to control; format: functional
Streptococcus mutans [40] = experiment: Antibacterial activity against Streptococcus mutans ATCC 25175 assessed as effect on planktonic growth at 0.34 ug/ml after 20 hrs relative to control; format: functional
Streptococcus mutans [41] = experiment: Antibacterial activity against Streptococcus mutans ATCC 25175 assessed as effect on planktonic growth at 0.68 ug/ml after 20 hrs relative to control; format: functional
Streptococcus mutans [42] = experiment: Antibacterial activity against Streptococcus mutans ATCC 25175 assessed as effect on planktonic growth at 1.37 ug/ml after 20 hrs relative to control; format: functional
Streptococcus mutans [43] = experiment: Antibacterial activity against Streptococcus mutans ATCC 25175 assessed as effect on planktonic growth at 2.73 ug/ml after 20 hrs relative to control; format: functional
Streptococcus mutans [44] = experiment: Antibacterial activity against Streptococcus mutans ATCC 25175 assessed as effect on planktonic growth at 5.5 ug/ml after 20 hrs relative to control; format: functional
Streptococcus mutans [45] = experiment: Antibacterial activity against Streptococcus mutans ATCC 25175 assessed as effect on planktonic growth at 10.9 ug/ml after 20 hrs relative to control; format: functional

`COc1ccccc1C1=C(Br)C(=O)N(CC(C)C)/C1=C/c1ccc(C(F)(F)F)cc1` showed an Activity (Streptococcus mutans [1]) of -12%, an Activity (Streptococcus mutans [2]) of -55.3% and an Activity (Streptococcus mutans [3]) of -46.9%. It also gave an Activity (Staphylococcus aureus [4]) of 0%, an Activity (Staphylococcus aureus [5]) of -1.6% and an Activity (Staphylococcus aureus [6]) of -5.2%. The Activity (Staphylococcus aureus [7]) was -14.9%, the Activity (Staphylococcus aureus [8]) was -18.5% and the Activity (Staphylococcus aureus [9]) was -21.7%. For the same compound, the Activity (Staphylococcus aureus [10]) was -3.8%, the Activity (Staphylococcus aureus [11]) was 4.9% and the Activity (Staphylococcus aureus [12]) was 59.8%. It also gave an Activity (Staphylococcus aureus [13]) of 91%, an Activity (Pseudomonas aeruginosa [14]) of -2.3% and an Activity (Pseudomonas aeruginosa [15]) of -5.2%. The Activity (Pseudomonas aeruginosa [16]) was -4%, the Activity (Pseudomonas aeruginosa [17]) was -10.4% and the Activity (Pseudomonas aeruginosa [18]) was -13.1%. It also gave an Activity (Pseudomonas aeruginosa [19]) of -15.8%, an Activity (Pseudomonas aeruginosa [20]) of -4.1% and an Activity (Pseudomonas aeruginosa [21]) of 9.1%. The Activity (Pseudomonas aeruginosa [22]) was 34.8%, the Activity (Pseudomonas aeruginosa [23]) was 30.6% and the Activity [24] was -16.7%. For the same compound, the Activity [25] was -2.2%, the Activity [26] was -10.2% and the Activity [27] was 1.1%. For the same compound, the Activity [28] was -6.4%, the Activity [29] was 1% and the Activity [30] was 36.6%. For the same compound, the Activity [31] was 88.5%, the Activity [32] was 40.1% and the Activity [33] was -5.5%. For the same compound, the IC50 (Streptococcus mutans [34]) was 58.9 µM, the inhibition at 44 µg/mL (Streptococcus mutans [35]) was 88.8% and the IC50 (Staphylococcus aureus [36]) was 95.1 µM. For the same compound, the inhibition (Pseudomonas aeruginosa [37]) was “Dose-dependent effect”, the IC50 (Pseudomonas aeruginosa [37]; ATCC 27853, 20 h) was 25.2 µg/mL (≈ 52.5 µM) and the inhibition [38] was “Dose-dependent effect”. It also gave an IC50 ([38]; ATCC 35547, 20 h) of 12.2 µg/mL (≈ 25.4 µM), an Activity (Streptococcus mutans [39]) of 7.9% and an Activity (Streptococcus mutans [40]) of -5.4%. For the same compound, the Activity (Streptococcus mutans [41]) was 6%, the Activity (Streptococcus mutans [42]) was 10.6% and the Activity (Streptococcus mutans [43]) was -0.8%. For the same compound, the Activity (Streptococcus mutans [44]) was -15.8% and the Activity (Streptococcus mutans [45]) was -19.3%.

— ChEMBL document CHEMBL3112480, “γ-Alkylidene-γ-lactones and isobutylpyrrol-2(5H)-ones analogues to rubrolides as inhibitors of biofilm formation by gram-positive and gram-negative bacteria” (Bioorg Med Chem Lett, 2014)
